Results from PubChem BioAssay AID328 (DTP/NCI, 2004).
Several values for one entry are separate records, joined by “and”; a condition that tells them apart may be missing. Equal entries are not always repeated. Inconclusive results and toxic doses are left out.

System: BDF1 mice, P388 leukemia ip, median survival T/C
Assay: NCI In Vivo Anticancer Drug Screen. Data for tumor model P388 Leukemia (intraperitoneal) in B6D2F1 (BDF1) mice
Settings: endpoint: median survival time, higher = longer survival
Procedure, shortened: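 Mice carrying the transplantable tumour receive compound or vehicle. Survival is followed in each arm, and the treated measure is divided by the vehicle measure.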

Structure (SMILES): COc1cccc2c1C(=O)c1c(O)c3c(c(O)c1C2=O)C[C@@](O)(C(=O)CO)C[C@@H]3OC1CC(N)C(O)C(C)O1 (some centres undefined)
- T/C (dose: 0.25 mg/kg/injection, schedule: Q03HX024 (ip), vehicle: saline): 230 % of control
- T/C (dose: 0.37 mg/kg/injection, schedule: Q03HX024 (ip), vehicle: saline): 285 % of control
- T/C (dose: 0.39 mg/kg/injection, schedule: Q01DX009 (ip), vehicle: water): 152 % of control
- T/C (dose: 0.5 mg/kg/injection, schedule: Q01DX009 (ip), vehicle: saline): 250 % of control
- T/C (dose: 0.5 mg/kg/injection, schedule: Q03HX024 (ip), vehicle: saline): 250 % of control
- T/C (dose: 0.75 mg/kg/injection, schedule: Q03HX024 (ip), vehicle: saline): 240 % of control
- T/C (dose: 0.8 mg/kg/injection, schedule: Q01DX004 (ip), vehicle: saline): 270 % of control
- T/C (dose: 0.9 mg/kg/injection, schedule: Q01DX009 (ip), vehicle: clinical formulation): 263 % of control
- T/C (dose: 1.0 mg/kg/injection, schedule: Q01DX001 (ip), vehicle: saline): 153 % of control
- T/C (dose: 1.0 mg/kg/injection, schedule: Q01DX004 (ip), vehicle: saline): 536 % of control
- T/C (dose: 1.0 mg/kg/injection, schedule: Q01DX009 (ip), vehicle: saline): 285 % of control
- T/C (dose: 1.0 mg/kg/injection, schedule: Q03HX008 (ip), vehicle: water): 250 % of control
- T/C (dose: 1.0 mg/kg/injection, schedule: Q03HX016 (ip), vehicle: saline): 290 % of control
- T/C (dose: 1.0 mg/kg/injection, schedule: Q04DX003 (ip), vehicle: saline): 106 % of control
- T/C (dose: 1.0 mg/kg/injection, schedule: Q04DX009 (ip), vehicle: water): 117 % of control
- T/C (dose: 1.2 mg/kg/injection, schedule: Q01DX009 (ip), vehicle: saline): 304 % of control
- T/C (dose: 1.2 mg/kg/injection, schedule: Q03HX008 (ip), vehicle: saline): 539 % of control
- T/C (dose: 1.3 mg/kg/injection, schedule: Q01DX009 (ip), vehicle: clinical formulation): 473 % of control
- T/C (dose: 1.5 mg/kg/injection, schedule: Q01DX009 (ip), vehicle: saline): 361 % of control
- T/C (dose: 1.5 mg/kg/injection, schedule: Q03HX024 (sc), vehicle: saline): 95 % of control
- T/C (dose: 1.56 mg/kg/injection, schedule: Q01DX009 (ip), vehicle: water): 224 % of control
- T/C (dose: 1.6 mg/kg/injection, schedule: Q01DX004 (ip), vehicle: saline): 423 % of control
- T/C (dose: 1.73 mg/kg/injection, schedule: Q04DX003 (ip), vehicle: water): 256 % of control
- T/C (dose: 1.8 mg/kg/injection, schedule: Q01DX009 (ip), vehicle: saline): 295 % of control and 306 % of control
- T/C (dose: 1.8 mg/kg/injection, schedule: Q03HX008 (ip), vehicle: saline): 539 % of control
- T/C (dose: 1.8 mg/kg/injection, schedule: Q04DX003 (ip), vehicle: saline): 122 % of control
- T/C (dose: 1.8 mg/kg/injection, schedule: Q## X003 (ip), vehicle: saline): 122 % of control
- T/C (dose: 2.0 mg/kg/injection, schedule: Q01DX009 (ip), vehicle: clinical formulation): 247 % of control
- T/C (dose: 2.0 mg/kg/injection, schedule: Q01DX009 (ip), vehicle: saline): 238 % of control and 250 % of control
- T/C (dose: 2.0 mg/kg/injection, schedule: Q03HX008 (ip), vehicle: water): 254 % of control
- T/C (dose: 2.0 mg/kg/injection, schedule: Q04DX003 (ip), vehicle: saline): 122 % of control
- T/C (dose: 2.0 mg/kg/injection, schedule: Q06HX004 (ip), vehicle: water): 300 % of control
- T/C (dose: 2.16 mg/kg/injection, schedule: Q04DX003 (ip), vehicle: water): 247 % of control
- T/C (dose: 2.5 mg/kg/injection, schedule: Q01DX009 (ip), vehicle: saline): 119 % of control
- T/C (dose: 2.5 mg/kg/injection, schedule: Q01DX009 (sc), vehicle: saline): 115 % of control
- T/C (dose: 2.5 mg/kg/injection, schedule: Q04DX003 (ip), vehicle: water): 237 % of control
- T/C (dose: 2.7 mg/kg/injection, schedule: Q01DX009 (ip), vehicle: saline): 124 % of control
- T/C (dose: 2.7 mg/kg/injection, schedule: Q03HX008 (ip), vehicle: saline): 92 % of control
- T/C (dose: 2.7 mg/kg/injection, schedule: Q04DX003 (ip), vehicle: saline): 122 % of control
- T/C (dose: 2.7 mg/kg/injection, schedule: Q## X003 (ip), vehicle: saline): 122 % of control
- T/C (dose: 2.88 mg/kg/injection, schedule: Q04DX003 (ip), vehicle: water): 241 % of control
- T/C (dose: 3.0 mg/kg/injection, schedule: Q01DX009 (ip), vehicle: clinical formulation): 473 % of control
- T/C (dose: 3.0 mg/kg/injection, schedule: Q01DX009 (ip), vehicle: saline): 104 % of control
- T/C (dose: 3.0 mg/kg/injection, schedule: Q01DX009 (sc), vehicle: saline): 100 % of control
- T/C (dose: 3.0 mg/kg/injection, schedule: Q03HX008 (ip), vehicle: water): 243 % of control
- T/C (dose: 3.0 mg/kg/injection, schedule: Q04DX004 (ip), vehicle: saline): 112 % of control
- T/C (dose: 3.5 mg/kg/injection, schedule: Q01DX009 (ip), vehicle: saline): 90 % of control
- T/C (dose: 3.5 mg/kg/injection, schedule: Q01DX009 (sc), vehicle: saline): 100 % of control
- T/C (dose: 3.6 mg/kg/injection, schedule: Q01DX004 (ip), vehicle: saline with Tween-80): 123 % of control
- T/C (dose: 3.6 mg/kg/injection, schedule: Q04DX003 (ip), vehicle: saline + alcohol): 232 % of control
- T/C (dose: 3.6 mg/kg/injection, schedule: Q04DX003 (ip), vehicle: water): 240 % of control and 259 % of control
- T/C (dose: 4.0 mg/kg/injection, schedule: Q03HX008 (ip), vehicle: saline): 541 % of control
- T/C (dose: 4.0 mg/kg/injection, schedule: Q04DX003 (sc), vehicle: saline): 150 % of control
- T/C (dose: 4.0 mg/kg/injection, schedule: Q06HX004 (ip), vehicle: water): 545 % of control
- T/C (dose: 4.4 mg/kg/injection, schedule: Q01DX001 (ip), vehicle: saline): 150 % of control
- T/C (dose: 4.5 mg/kg/injection, schedule: Q01DX009 (ip), vehicle: clinical formulation): 100 % of control
- T/C (dose: 4.5 mg/kg/injection, schedule: Q04DX003 (ip), vehicle: saline): 539 % of control and 571 % of control
- T/C (dose: 4.8 mg/kg/injection, schedule: Q04DX003 (ip), vehicle: water): 224 % of control and 247 % of control
- T/C (dose: 5.0 mg/kg/injection, schedule: Q01DX001 (ip), vehicle: saline): 252 % of control
- T/C (dose: 5.0 mg/kg/injection, schedule: Q03HX008 (ip), vehicle: water): 89 % of control
- T/C (dose: 5.0 mg/kg/injection, schedule: Q07DX006 (ip), vehicle: saline): 245 % of control
- T/C (dose: 5.5 mg/kg/injection, schedule: Q04DX003 (ip), vehicle: saline): 571 % of control
- T/C (dose: 5.5 mg/kg/injection, schedule: Q04DX003 (sc), vehicle: saline): 150 % of control
- T/C (dose: 6.0 mg/kg/injection, schedule: Q01DX001 (ip), vehicle: saline): 516 % of control
- T/C (dose: 6.0 mg/kg/injection, schedule: Q04DX003 (ip), vehicle: saline + alcohol): 270 % of control
- T/C (dose: 6.0 mg/kg/injection, schedule: Q04DX003 (ip), vehicle: saline): 225 % of control and 153 % of control
- T/C (dose: 6.0 mg/kg/injection, schedule: Q04DX003 (ip), vehicle: water): 250 % of control and 106 % of control and 123 % of control
- T/C (dose: 6.0 mg/kg/injection, schedule: Q## X003 (ip), vehicle: saline): 153 % of control
- T/C (dose: 6.6 mg/kg/injection, schedule: Q01DX001 (iv), vehicle: saline): 109 % of control
- T/C (dose: 6.67 mg/kg/injection, schedule: Q04DX003 (ip), vehicle: saline): 271 % of control
- T/C (dose: 7.5 mg/kg/injection, schedule: Q01DX001 (ip), vehicle: saline): 295 % of control
- T/C (dose: 7.5 mg/kg/injection, schedule: Q01DX001 (sc), vehicle: saline): 150 % of control
- T/C (dose: 7.5 mg/kg/injection, schedule: Q07DX006 (ip), vehicle: saline): 409 % of control
- T/C (dose: 8.0 mg/kg/injection, schedule: Q04DX009 (ip), vehicle: water): 150 % of control
- T/C (dose: 8.4 mg/kg/injection, schedule: Q03HX008 (ip), vehicle: water): 83 % of control
- T/C (dose: 10.0 mg/kg/injection, schedule: Q01DX001 (ip), vehicle: water): 268 % of control
- T/C (dose: 10.0 mg/kg/injection, schedule: Q01DX001 (iv), vehicle: saline): 117 % of control
- T/C (dose: 10.0 mg/kg/injection, schedule: Q07DX006 (ip), vehicle: saline): 313 % of control
- T/C (dose: 12.0 mg/kg/injection, schedule: Q01DX001 (ip), vehicle: saline): 486 % of control and 516 % of control (2×)
- T/C (dose: 15.0 mg/kg/injection, schedule: Q01DX001 (iv), vehicle: saline): 235 % of control and 312 % of control
- T/C (dose: 16.0 mg/kg/injection, schedule: Q04DX009 (ip), vehicle: water): 108 % of control
- T/C (dose: 16.7 mg/kg/injection, schedule: Q01DX001 (ip), vehicle: water): 112 % of control
- T/C (dose: 20.0 mg/kg/injection, schedule: Q01DX001 (ip), vehicle: saline): 104 % of control
- T/C (dose: 20.0 mg/kg/injection, schedule: Q01DX001 (ip), vehicle: water): 79 % of control
